Assay results: patent US20250257055A1, “TERTIARY AMIDE DERIVATIVES SUBSTITUTED WITH 4-MEMBERED RING STRUCTURE” (Sumitomo Pharma Co., Ltd., priority 2024, published 2025)
Like-named read-outs stand apart in the source and are kept apart here.

Legend:
[1] = tested on: Kuramochi cells; assay: Cell proliferation inhibition experiment using Kuramochi cells; assay type: cell-based; conditions: 144 h, cultured for 6 days, CellTiter-Glo
Protocol: Kuramochi cells (derived from ovarian cancer) were obtained from JCRB (Japanese Collection of Research Bioresources) cell bank. Kuramochi cells were cultured in RPMI-1640 medium containing 10% fetal bovine serum and 1% penicillin/streptomycin under conditions of 37° C. and 5% CO2.
(§1) 500 cells per well were seeded in a 384-well plate. One day after seeding, Examples 3, 7, 9, 10, 11, 20, 23 to 25, and 30 to 34 were added so that the final concentration of DMSO was 0.1%, and the cells were cultured for 6 days. After the culture was completed, the cell viability was measured using CellTiter-Glo Luminescent Cell Viability Assay (Promega, G7570).

[2] = molecular target: hDAT (Homo sapiens (Human), UniProt Q01959); assay: Dopamine receptor inhibitory activity evaluation (binding assay, CHO-S/hDAT membranes); conditions: CHO-S/hDAT membrane preparation
Protocol: The binding evaluation assay was outsourced to Eurofins. Specifically, CHO-S/hDAT cells were homogenized in an incubation buffer consisting of 50 mmol/L Tris-HCl, pH 7.4, 100 mmol/L NaCl, 1 μmol/L Leupeptin, and 10 μmol/L PMSF. The membrane pellet obtained by centrifugation was resuspended in the incubation buffer to prepare a membrane preparation. The test compound (1-10 μmol/L DMSO solution), the membrane preparation, and 0.15 nmol/L […] were mixed and incubated at 4° C. for 180 minutes. The cell membrane-[^125I]RTI-55 complex was bound to a GF/B filter mat by vacuum filtration and washed with 50 mmol/L Tris-HCl, pH 7.4. The effect on the receptor was assessed by measuring radioactivity using a scintillation counter.

[3] = molecular target: hSERT (Homo sapiens (Human), UniProt P31645); assay: Serotonin receptor inhibitory activity evaluation (binding assay, HEK293/hSERT membranes); conditions: HEK293/hSERT membrane preparation, [3H]Paroxetin
Protocol: The binding evaluation assay was outsourced to Eurofins. Specifically, HEK293/hSERT cells were homogenized in a buffer consisting of 100 mmol/L NaCl, 1 μmol/L Leupeptin, 10 μmol/L PMSF, and 50 mmol/L Tris-HCl (pH7.4). The membrane pellet obtained by centrifugation was resuspended in an incubation buffer consisting of 50 mmol/L Tris-HCl (pH 7.4), 120 mmol/L NaCl, and 5 mmol/L KCl to prepare a membrane preparation. The test compound (1-10 μmol/L DMSO solution), the membrane preparation, and 0.4 nmol/L [^3H]Paroxetin were mixed and incubated at 25° C. for 60 minutes. The cell membrane-[^3H]Paroxetin complex was bound to a GF/B filter mat by vacuum filtration and washed with 50 mmol/L Tris-HCl (pH 7.4). The effect on the receptor was assessed by measuring radioactivity using a scintillation counter.

[4] = tested on: RMGI cells; assay: Cell proliferation inhibition experiment using RMGI cells; assay type: cell-based; conditions: Homo sapiens, RMG-I, 144 h, cultured for 6 days, CellTiter-Glo
Protocol: RMGI cells (derived from ovarian cancer) were obtained from JCRB cell bank. RMGI cells were cultured in Ham's F12 medium containing 10% fetal bovine serum and 1% penicillin/streptomycin under conditions of 37° C. and 5% CO2.
as §1, with “200” for “500”, “20, and” for “20,”, “25” for “25, and 30 to 34”

[5] = molecular target: recombinant p300 (Homo sapiens (Human), UniProt Q09472); assay: HAT activity inhibition experiment (SensoLyte HAT(p300) Assay Kit); assay type: biochemical; conditions: recombinant p300, histone H3 peptide, acetyl CoA
Summary of the method: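 Recombinant human p300 preincubated with compound 10 min at room temperature, then acetyl-CoA and histone H3 peptide added and reacted 30 min at 37 °C. After stop, developer added for 30 min at room temperature in the dark; fluorescence read at Ex 389/Em 513 nm.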

[6] = tested on: G-401 cells; assay: Cell proliferation inhibition experiment using G-401 cells; assay type: cell-based; conditions: Homo sapiens, 72 h, cultured for 3 days, CellTiter-Glo
Summary of the method: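 Malignant rhabdoid tumor-derived cells, grown in McCoy's 5A with 10% FBS, were seeded at 500 cells/well and dosed one day later (final DMSO 0.1%). After 3 days of culture at 37° C, viability was read by CellTiter-Glo luminescence.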

[7] = Pharmacokinetic study in mice; assay type: in vivo
Protocol: The test compound was administered to 7-week-old female BALB/c (BALB/cAnN CrlCrlj) mice intravenously (dosage: 1 mg/kg) in a 50% PEG solution (0.01 mol/L HCl) or orally (dosage: 10 mg/kg) in a 0.5% methylcellulose aqueous solution, and blood was collected at the following times:
Intravenous administration: 5 min, 15 min, 30 min, 1 hr, 2 hr, 4 hr, 6 hr, and 24 hr after administration
Oral administration: 15 min, 30 min, 1 hr, 2 hr, 4 hr, 6 hr, and 24 hr after administration
The collected blood was centrifuged at 3000 rpm×10 min using a refrigerated centrifuge set at 4° C., and the obtained plasma was measured by LC-MS. A calibration curve was prepared from the value (peak ratio) obtained by dividing the peak area of the test substance by the peak area of the internal standard substance in MS and the concentration of the plasma calibration curve sample. The concentration in the sample was calculated from the peak ratio and the calibration curve of each sample.

[8] = Membrane permeability test (PAMPA); assay type: in vitro ADME
Summary of the method: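 Donor compartment held compound in system solution over a GIT Lipid-0 membrane, with sink buffer on the acceptor side; incubation 4 h at 37° C. Donor and acceptor concentrations were read by UV (190-500 nm), or by LC-MS for weakly absorbing compounds, and Pe (10^−6 cm/sec) was calculated.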

[9] = female, BALB/c (BALB/cAnN CrlCrlj), mouse, plasma, oral, 10 mg/kg

Chain of hDAT (Q01959 whole entry): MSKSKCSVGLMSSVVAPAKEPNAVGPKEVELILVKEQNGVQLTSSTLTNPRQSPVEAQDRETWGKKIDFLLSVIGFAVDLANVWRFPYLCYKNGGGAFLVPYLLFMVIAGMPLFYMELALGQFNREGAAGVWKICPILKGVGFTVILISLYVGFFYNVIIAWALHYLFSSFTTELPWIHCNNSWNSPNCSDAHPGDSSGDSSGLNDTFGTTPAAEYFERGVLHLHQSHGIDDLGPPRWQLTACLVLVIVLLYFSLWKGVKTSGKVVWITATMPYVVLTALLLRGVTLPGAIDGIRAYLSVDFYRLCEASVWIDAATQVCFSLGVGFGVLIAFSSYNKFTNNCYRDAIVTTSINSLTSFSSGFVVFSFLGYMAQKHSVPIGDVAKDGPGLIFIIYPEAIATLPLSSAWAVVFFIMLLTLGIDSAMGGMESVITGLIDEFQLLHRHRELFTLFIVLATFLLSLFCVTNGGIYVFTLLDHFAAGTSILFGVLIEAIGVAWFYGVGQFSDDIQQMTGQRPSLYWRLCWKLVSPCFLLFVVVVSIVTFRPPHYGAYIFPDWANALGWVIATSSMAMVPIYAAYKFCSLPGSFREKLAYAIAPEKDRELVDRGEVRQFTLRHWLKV
Chain of hSERT (P31645 whole entry): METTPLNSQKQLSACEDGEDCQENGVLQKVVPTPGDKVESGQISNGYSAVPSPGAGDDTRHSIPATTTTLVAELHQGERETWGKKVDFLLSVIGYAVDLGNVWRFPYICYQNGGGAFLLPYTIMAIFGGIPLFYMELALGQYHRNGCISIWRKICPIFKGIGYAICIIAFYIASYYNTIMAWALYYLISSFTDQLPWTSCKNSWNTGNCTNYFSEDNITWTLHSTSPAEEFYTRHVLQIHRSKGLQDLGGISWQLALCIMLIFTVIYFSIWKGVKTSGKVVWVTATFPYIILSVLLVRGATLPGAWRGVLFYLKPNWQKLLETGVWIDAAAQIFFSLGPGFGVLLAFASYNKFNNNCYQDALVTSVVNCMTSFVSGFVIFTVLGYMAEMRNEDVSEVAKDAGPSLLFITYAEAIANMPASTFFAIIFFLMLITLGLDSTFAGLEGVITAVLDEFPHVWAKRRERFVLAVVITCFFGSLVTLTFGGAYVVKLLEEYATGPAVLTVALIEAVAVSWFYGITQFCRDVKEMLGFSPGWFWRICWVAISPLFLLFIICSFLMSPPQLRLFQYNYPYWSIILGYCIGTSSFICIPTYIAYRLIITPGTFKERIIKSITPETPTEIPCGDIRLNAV
Chain of recombinant p300 (Q09472 whole entry): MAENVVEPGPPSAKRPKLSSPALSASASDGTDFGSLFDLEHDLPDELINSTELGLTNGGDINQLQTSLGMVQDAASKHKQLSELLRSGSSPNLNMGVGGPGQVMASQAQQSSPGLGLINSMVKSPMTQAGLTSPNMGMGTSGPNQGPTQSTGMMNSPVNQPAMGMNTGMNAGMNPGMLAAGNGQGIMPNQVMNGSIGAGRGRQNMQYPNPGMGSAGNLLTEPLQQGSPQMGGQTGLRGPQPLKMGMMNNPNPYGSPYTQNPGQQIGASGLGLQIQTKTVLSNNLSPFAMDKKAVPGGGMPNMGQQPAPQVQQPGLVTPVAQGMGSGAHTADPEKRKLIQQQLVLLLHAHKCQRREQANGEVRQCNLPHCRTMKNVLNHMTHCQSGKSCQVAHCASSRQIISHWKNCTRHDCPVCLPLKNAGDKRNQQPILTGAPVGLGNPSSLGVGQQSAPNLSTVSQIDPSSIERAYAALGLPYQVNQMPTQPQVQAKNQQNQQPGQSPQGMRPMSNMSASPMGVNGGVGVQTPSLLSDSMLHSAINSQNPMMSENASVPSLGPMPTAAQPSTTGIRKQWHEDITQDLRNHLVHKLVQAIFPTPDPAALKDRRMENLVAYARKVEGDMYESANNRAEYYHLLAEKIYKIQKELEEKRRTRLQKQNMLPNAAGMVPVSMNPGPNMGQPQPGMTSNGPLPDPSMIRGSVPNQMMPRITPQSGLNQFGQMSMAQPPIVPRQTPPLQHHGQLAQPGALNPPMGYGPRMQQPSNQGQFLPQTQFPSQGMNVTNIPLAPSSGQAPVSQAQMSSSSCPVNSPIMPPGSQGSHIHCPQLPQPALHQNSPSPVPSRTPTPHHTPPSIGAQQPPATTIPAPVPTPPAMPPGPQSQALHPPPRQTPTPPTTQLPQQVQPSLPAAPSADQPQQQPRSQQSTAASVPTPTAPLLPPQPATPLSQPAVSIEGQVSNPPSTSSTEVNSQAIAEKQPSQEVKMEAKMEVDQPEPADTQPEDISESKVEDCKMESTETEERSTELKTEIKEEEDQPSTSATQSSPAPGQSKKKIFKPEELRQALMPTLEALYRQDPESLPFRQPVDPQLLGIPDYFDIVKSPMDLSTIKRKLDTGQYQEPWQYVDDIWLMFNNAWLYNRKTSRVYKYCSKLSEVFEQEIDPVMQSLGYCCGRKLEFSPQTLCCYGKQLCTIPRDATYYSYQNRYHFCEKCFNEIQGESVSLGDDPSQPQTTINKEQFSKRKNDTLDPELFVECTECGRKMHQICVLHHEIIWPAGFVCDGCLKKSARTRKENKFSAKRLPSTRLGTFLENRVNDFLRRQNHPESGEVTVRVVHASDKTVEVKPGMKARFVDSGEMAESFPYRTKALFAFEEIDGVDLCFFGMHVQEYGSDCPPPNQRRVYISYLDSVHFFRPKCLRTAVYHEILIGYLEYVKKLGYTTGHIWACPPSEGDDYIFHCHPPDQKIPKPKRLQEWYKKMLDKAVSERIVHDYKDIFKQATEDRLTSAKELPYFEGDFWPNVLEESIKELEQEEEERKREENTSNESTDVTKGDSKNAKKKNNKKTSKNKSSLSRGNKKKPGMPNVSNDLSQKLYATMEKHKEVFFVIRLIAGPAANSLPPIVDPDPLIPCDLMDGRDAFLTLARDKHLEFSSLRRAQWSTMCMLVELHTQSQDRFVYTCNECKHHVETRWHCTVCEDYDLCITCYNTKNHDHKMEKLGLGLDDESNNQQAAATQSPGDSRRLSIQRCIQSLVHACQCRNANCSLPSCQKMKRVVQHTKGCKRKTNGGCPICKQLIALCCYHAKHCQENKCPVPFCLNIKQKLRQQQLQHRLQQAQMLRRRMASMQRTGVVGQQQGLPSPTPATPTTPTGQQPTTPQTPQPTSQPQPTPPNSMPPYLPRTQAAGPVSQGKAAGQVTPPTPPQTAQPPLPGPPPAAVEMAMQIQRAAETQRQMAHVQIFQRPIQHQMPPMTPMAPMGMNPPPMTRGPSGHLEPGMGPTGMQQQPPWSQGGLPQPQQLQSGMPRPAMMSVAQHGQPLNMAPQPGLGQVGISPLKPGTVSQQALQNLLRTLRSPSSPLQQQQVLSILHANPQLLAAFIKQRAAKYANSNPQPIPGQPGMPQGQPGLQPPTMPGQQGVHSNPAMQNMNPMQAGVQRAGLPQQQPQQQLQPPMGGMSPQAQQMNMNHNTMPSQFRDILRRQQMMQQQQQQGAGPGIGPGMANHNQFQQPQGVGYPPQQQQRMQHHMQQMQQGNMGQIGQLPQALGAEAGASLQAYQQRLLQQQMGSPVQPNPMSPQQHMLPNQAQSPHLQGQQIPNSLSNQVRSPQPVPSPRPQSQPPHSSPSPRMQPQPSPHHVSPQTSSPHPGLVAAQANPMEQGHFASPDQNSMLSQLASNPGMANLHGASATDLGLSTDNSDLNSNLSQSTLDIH

For `CN1CC(N(Cc2ccc(F)cn2)C(=O)CN2C(=O)N[C@]3(C[C@@H](F)c4cc(-c5cnn(CC6COC6)c5)ccc43)C2=O)(C(F)(F)F)C1` [Example 25, 2-[(1′S,3′R)-3′-fluoro-5′-{1-[(oxetan-3-yl)methyl]-1H-pyrazol-4-yl}-2,5-dioxo-2′,3′-dihydrospiro[imidazolidine-4,1′-inden]-1-yl]-N-[(5-fluoropyridin-2-yl)methyl]-N-[1-methyl-3-(trifluoromethyl)azetidin-3-yl]acetamide], the IC50 [1] was 424 nM, the inhibition at 10 µM [2] was 9% and the inhibition at 10 µM [3] was 2%. The IC50 [4] was 41 nM, the IC50 [5] was 5.7 nM and the IC50 [6] was 59 nM. The AUC ([7]; female, BALB/c (BALB/cAnN CrlCrlj), mouse, plasma, intravenous, 1 mg/kg) was 672 ng·h/mL, the AUC [7, 9] was 1310 ng·h/mL and the Cmax [7, 9] was 1630 ng/mL. The BA ([7]; oral, 10 mg/kg) was 19.6%, the Papp at 4 h ([8]; pH 5.0, 37° C., read-out: pH 5.0 Pe) was 1 ×10⁻⁶ cm/s and the Papp at 4 h ([8]; pH 7.4, 37° C., read-out: pH 7.4 Pe) was 6.1 ×10⁻⁶ cm/s.
